Results reported in US8916711B2, “Imidazothiazole-chalcone derivatives as potential anticancer agents and process for the preparation thereof” (Council of Scientific and Industrial Research, priority 2009, dated 2014).
Where two headings read alike, the source gives them in different places.

Experiments:
Assay type in all cases: cell-based
NCI-H460 = experiment: NCI in vitro cytotoxicity (SRB, 48 h), Non-small cell lung panel; conditions: Homo sapiens, 48 h exposure
CNS cancer cell lines = experiment: NCI in vitro cytotoxicity, whole panel; conditions: Homo sapiens; for CC50: read-out: Log10 LC50 (converted)
MALME-3M = experiment: NCI in vitro cytotoxicity (SRB, 48 h), Melanoma panel; conditions: Homo sapiens, 48 h exposure
CCRF-CEM = experiment: NCI in vitro cytotoxicity (SRB, 48 h), Leukemia panel; conditions: Homo sapiens, 48 h exposure
SK-MEL-28 = experiment: NCI in vitro cytotoxicity (SRB, 48 h), Melanoma panel; conditions: Homo sapiens; SK-MEL-28, Melanoma; 48 h exposure
KM12 = experiment: NCI in vitro cytotoxicity (SRB, 48 h), Colon panel; conditions: Homo sapiens, 48 h exposure
NCI/ADR-RES = experiment: NCI in vitro cytotoxicity (SRB, 48 h), Ovarian panel; conditions: Homo sapiens, 48 h exposure
OVCAR-5 = experiment: as above; conditions: Homo sapiens
[1] = test system: Ovarian cancer cell lines; experiment: NCI in vitro cytotoxicity, whole panel; conditions: Homo sapiens; for CC50: read-out: Log10 LC50 (converted)
[2] = test system: sixty human tumour cell lines; experiment: NCI in vitro cytotoxicity, all panels; conditions: for CC50: read-out: Log10 LC50 mean graph midpoint (MG_MID) (converted)
SF-539 = experiment: NCI in vitro cytotoxicity (SRB, 48 h), CNS panel; conditions: Homo sapiens; SF-539, CNS; 48 h exposure
OVCAR-3 = experiment: NCI in vitro cytotoxicity (SRB, 48 h), Ovarian panel; conditions: Homo sapiens; OVCAR-3, Ovarian; 48 h exposure
EKVX = experiment: NCI in vitro cytotoxicity (SRB, 48 h), Non-small cell lung panel; conditions: Homo sapiens, 48 h exposure
Leukemia cell lines = experiment: NCI in vitro cytotoxicity, whole panel; conditions: Homo sapiens; for CC50: read-out: Log10 LC50 (converted)
DU-145 = experiment: NCI in vitro cytotoxicity (SRB, 48 h), Prostate panel; conditions: Homo sapiens; DU-145, Prostate; 48 h exposure
NCI-H23 = experiment: NCI in vitro cytotoxicity (SRB, 48 h), Non-small cell lung panel; conditions: Homo sapiens, 48 h exposure
A549/ATCC = experiment: as above; conditions: Homo sapiens, 48 h exposure
SF-295 = experiment: NCI in vitro cytotoxicity (SRB, 48 h), CNS panel; conditions: Homo sapiens; SF-295, CNS; 48 h exposure
MDA-MB-468 = experiment: NCI in vitro cytotoxicity (SRB, 48 h), Breast panel; conditions: Homo sapiens; MDA-MB-468, Breast; 48 h exposure
NCI-H226 = experiment: NCI in vitro cytotoxicity (SRB, 48 h), Non-small cell lung panel; conditions: Homo sapiens, 48 h exposure
SK-MEL-2 = experiment: NCI in vitro cytotoxicity (SRB, 48 h), Melanoma panel; conditions: Homo sapiens; SK-MEL-2, Melanoma; 48 h exposure
SR = experiment: NCI in vitro cytotoxicity (SRB, 48 h), Leukemia panel; conditions: Homo sapiens, 48 h exposure
Experimental: (§1) The imidazothiazole-chalcone hybrids 7a, 7e, 7f, 8f and 19e have been tested against sixty human tumour cell lines derived from nine cancer types (leukemia, non-small cell lung cancer, colon cancer, CNS cancer, melanoma, ovarian cancer, renal cancer, prostate cancer and breast cancer) as per NCI protocol. For each compound, dose response curves for individual cell lines have been measured at a minimum of five concentrations at 10 fold dilutions. A protocol of 48 h continuous drug exposure has been used, and a sulforhodamine B (SRB) protein assay was used to estimate cell viability or growth. The concentration for 50% cell growth inhibition (GI50), total cell growth inhibition (TGI, 0% growth) and 50% cell death (LC50, […]) compared with the control has been calculated (Table-1).

HL-60(TB) = experiment: as above; conditions: Homo sapiens, 48 h exposure
Experimental: as §1

ACHN = experiment: NCI in vitro cytotoxicity (SRB, 48 h), Renal panel; conditions: Homo sapiens, 48 h exposure
HS 578T = experiment: NCI in vitro cytotoxicity (SRB, 48 h), Breast panel; conditions: Homo sapiens, 48 h exposure
HCC-2998 = experiment: NCI in vitro cytotoxicity (SRB, 48 h), Colon panel; conditions: Homo sapiens
HOP-92 = experiment: NCI in vitro cytotoxicity (SRB, 48 h), Non-small cell lung panel; conditions: Homo sapiens; for IC50: HOP-92, Table 4, read-out: Comparative efficacy
TK-10 = experiment: NCI in vitro cytotoxicity (SRB, 48 h), Renal panel; conditions: Homo sapiens; TK-10, Renal; 48 h exposure
[3] = test system: Non-small-cell lung cancer cell lines; experiment: NCI in vitro cytotoxicity, whole panel; conditions: Homo sapiens; for CC50: read-out: Log10 LC50 (converted)
MOLT-4 = experiment: NCI in vitro cytotoxicity (SRB, 48 h), Leukemia panel; conditions: Homo sapiens; MOLT-4, Leukemia; 48 h exposure
NCI-H522 = experiment: NCI in vitro cytotoxicity (SRB, 48 h), Non-small cell lung panel; conditions: Homo sapiens, 48 h exposure
HCT-15 = experiment: NCI in vitro cytotoxicity (SRB, 48 h), Colon panel; conditions: Homo sapiens; HCT-15, Colon; 48 h exposure
A498 = experiment: NCI in vitro cytotoxicity (SRB, 48 h), Renal panel; conditions: Homo sapiens, 48 h exposure
[4] = CNS cell, exposure period of at least 48 hrs, read-out: GI50, range over CNS cell lines
[5] = CNS, average of six to eight cell lines, read-out: Log10 GI50 (converted)
[6] = CNS, average of six to eight cell lines
[7] = OVCAR-5, Ovarian, 48 h exposure
[8] = Ovarian, average of six to eight cell lines, read-out: Log10 GI50 (converted)
[9] = Ovarian, average of six to eight cell lines
[10] = exposure period of at least 48 hrs, read-out: GI50, range over ovarian cell lines
[11] = Homo sapiens, sixty cell lines, nine panels, read-out: GI50 against sixty cell lines in nine cell panels
[12] = human tumour cell lines, read-out: Log10 GI50 mean graph midpoint (MG_MID) (converted)
[13] = Leukemia, average of six to eight cell lines, read-out: Log10 GI50 (converted)
[14] = Leukemia, average of six to eight cell lines
[15] = exposure period of at least 48 hrs, read-out: GI50, range over leukemia cell lines
[16] = HOP-92, Non-small cell lung, 48 h exposure
[17] = Non-small-cell lung, average of six to eight cell lines, read-out: Log10 GI50 (converted)
[18] = Non-small-cell lung, average of six to eight cell lines
[19] = exposure period of at least 48 hrs, read-out: GI50, range over lung cell lines

COc1ccc(-c2nc3sccn3c2/C=C/C(=O)c2cc(OC)c(OC)c(OC)c2)cc1 [Compound 7a, (E)-3-(6-(4-methoxyphenyl)imidazo[2,1-b]thiazol-5-yl)-1-(3,4,5-trimethoxyphenyl) prop-2-en-1-one]
GI50 (NCI-H460): 2700 nM
GI50 (CNS cancer cell lines; [4]): 1660 to 3540 nM
GI50 (CNS cancer cell lines; [5]): 2630 nM
CC50 (CNS cancer cell lines; [6]): ≥ 100000 nM
GI50 (MALME-3M): 5420 nM
GI50 (CCRF-CEM): 3080 nM
GI50 (SK-MEL-28): 4110 nM
GI50 (KM12): 2650 nM
GI50 (NCI/ADR-RES): 2570 nM
GI50 (OVCAR-5; [7]): 1990 nM
GI50 (OVCAR-5; OVCAR-5, ovarian): 1990 nM
GI50 [1, 8]: 1860 nM
CC50 [1, 9]: 70800 nM
GI50 [1, 10]: 210 to 4050 nM
GI50 [2, 11]: < 9000 nM
Log10 TGI mean graph midpoint (MG_MID) ([2]; human tumour cell lines): −4.76
in vitro cytotoxicity, in words ([2]; human tumour cell lines): significant cytotoxicity
GI50 [2, 12]: 2340 nM
CC50 ([2]; human tumour cell lines): 87100 nM
GI50 (SF-539): 1660 nM
GI50 (OVCAR-3): 2230 nM
GI50 (EKVX): 3120 nM
GI50 (Leukemia cell lines; [13]): 2240 nM
CC50 (Leukemia cell lines; [14]): ≥ 100000 nM
GI50 (Leukemia cell lines; [15]): 1660 to 3080 nM
GI50 (DU-145): 2620 nM
GI50 (NCI-H23): 2180 nM
GI50 (A549/ATCC): 2210 nM
GI50 (SF-295): 2730 nM
GI50 (MDA-MB-468): 2960 nM
GI50 (NCI-H226): 2580 nM
GI50 (SK-MEL-2): 2420 nM
GI50 (SR): 2330 nM
GI50 (HL-60(TB)): 1660 nM
GI50 (ACHN): 4080 nM
GI50 (HS 578T): 1900 nM
GI50 (HCC-2998; HCC-2998, Colon, 48 h exposure): 1770 nM
GI50 (HCC-2998; HCC-2998, colon): 1770 nM
GI50 (HOP-92; [16]): 240 nM
GI50 (HOP-92; HOP-92, non-small cell lung): 240 nM
IC50 (HOP-92): 240 nM
GI50 (TK-10): 5040 nM
GI50 [3, 17]: 1950 nM
CC50 [3, 18]: 95500 nM
GI50 [3, 19]: 240 to 3700 nM
GI50 (MOLT-4): 2520 nM
GI50 (NCI-H522): 1970 nM
GI50 (HCT-15): 3450 nM
GI50 (A498): 2990 nM

COc1cc(C(=O)/C=C/c2c(-c3ccc(F)cc3)nc3sccn23)cc(OC)c1OC [Compound 7e, (E)-3-(6-(4-fluorophenyl)imidazo[2,1-b]thiazol-5-yl)-1-(3,4,5-trimethoxyphenyl)prop-2-en-1-one]
GI50 (NCI-H460): 2300 nM
GI50 (CNS cancer cell lines; [4]): 1740 to 3730 nM
GI50 (CNS cancer cell lines; [5]): 2340 nM
CC50 (CNS cancer cell lines; [6]): 52500 nM
GI50 (MALME-3M): 8270 nM
GI50 (CCRF-CEM): 2230 nM
GI50 (SK-MEL-28): 4190 nM
GI50 (KM12): 2300 nM
GI50 (NCI/ADR-RES): 2100 nM
GI50 (OVCAR-5; [7]): 1920 nM
GI50 [1, 8]: 2190 nM
CC50 [1, 9]: 52500 nM
GI50 [1, 10]: 1040 to 3780 nM
GI50 [2, 11]: < 9000 nM
Log10 TGI mean graph midpoint (MG_MID) ([2]; human tumour cell lines): −5.02
in vitro cytotoxicity, in words ([2]; human tumour cell lines): significant cytotoxicity
GI50 [2, 12]: 2240 nM
CC50 ([2]; human tumour cell lines): 58900 nM
GI50 (SF-539): 1740 nM
GI50 (OVCAR-3): 2160 nM
GI50 (EKVX): 2740 nM
GI50 (Leukemia cell lines; [13]): 1860 nM
CC50 (Leukemia cell lines; [14]): 70800 nM
GI50 (Leukemia cell lines; [15]): 1550 to 2230 nM
GI50 (DU-145): 2450 nM
GI50 (NCI-H23): 2490 nM
GI50 (A549/ATCC): 2090 nM
GI50 (SF-295): 1800 nM
GI50 (MDA-MB-468): 3170 nM
GI50 (NCI-H226): 1890 nM
GI50 (SK-MEL-2): 2520 nM
GI50 (SR): 1730 nM
GI50 (HL-60(TB)): 1770 nM
GI50 (ACHN): 2960 nM
GI50 (HS 578T): 2050 nM
GI50 (HCC-2998; HCC-2998, Colon, 48 h exposure): 2110 nM
GI50 (HOP-92; [16]): 1050 nM
GI50 (HOP-92; HOP-92, non-small cell lung): 1050 nM
IC50 (HOP-92): 1050 nM
GI50 (TK-10): 5810 nM
GI50 [3, 17]: 2240 nM
CC50 [3, 18]: 56200 nM
GI50 [3, 19]: 1050 to 3630 nM
GI50 (MOLT-4): 2070 nM
GI50 (NCI-H522): 2320 nM
GI50 (HCT-15): 2940 nM
GI50 (A498): 2730 nM
